In patent US10300056B2, “CGRP receptor antagonists” (Heptares Therapeutics Limited, priority 2015, dated 2019):
≈ marks a conversion by molar mass, not a printed value. Counter-ions that a name gives are not always drawn. Like-named read-outs stand apart in the source and are kept apart here.

How the values were obtained:
[1] = biological target: Human CGRP receptors (consisting of CRLR and RAMP1) (Homo sapiens (Human), UniProt O60894+Q16602); assay: Radioligand binding assay (3H-telcagepant displacement); conditions: Sf21 membranes, 0.5 nM 3H-telcagepant, Cheng-Prussoff
Protocol: Human Calcitonin Receptor Like Receptor (CRLR) and human RAMP1 were cloned into Invitrogen's (ThermoFisher Scientific, UK) pFastBac dual expression vector. Transposition of CRLR/RAMP1 DNA was performed using Invitrogen's Bac-to-Bac Baculovirus Expression Systems. P0 baculovirus was generated by transfecting SF9 cells with bacmid DNA using Cellfectin® II transfection reagent (ThermoFisher Scientific, UK, catalog number 10362-100). Following P0 generation P1 virus was then generated ready for large scale infection and membrane preparation. Sf21 cells were grown in expression medium ESF921 (Expression Systems, USA, catalog number 96-001-01) supplemented with 10% heat-inactivated FBS and 1% Pen/Strep and were infected at a cell density of 2.5×10^6 cells/mL and an MOI of 2. Expression was carried out over 48 h in a shaking incubator set at 27° C. The cell culture was centrifuged at 2,500 rcf for 10 min at 4° C. The pellets were resuspended in cold PBS supplemented with Roche's Complete EDTA-free protease inhibitor cocktail tablets (Roche Applied Sciences, catalog number 05056489001), 1 mM PMSF and 1 mM EDTA. The resuspended cell paste was then centrifuged at 3,273 rcf for 12 min at 4° C. The supernatant was discarded and the pellet frozen at −80° C. The cell pellet from a 4 L culture was resuspended in buffer containing 50 mM Hepes pH 7.5, 150 mM NaCl, 8 Roche EDTA-free protease inhibitor cocktail tablets and 1 mM PMSF. The suspension was left stirring at rt for 1 h and then homogenised for 90 s at 9,500 rpm using a VDI 25 (VWR, USA) homogeniser. The cells were then lysed using a Microfluidizer processor M-110L Pneumatic (Microfluidics, USA). After lysis, the mixture was homogenised for 90 s at 9,500 rpm and then centrifuged at 335 rcf for 10 min. The supernatant was then further ultra-centrifuged at 42,000 rpm for 90 min. After ultra-centrifugation, the supernatant was discarded and the pellet was resuspended in 50 mL (25 mL for each 2 L culture) of buffer containing 50 mM Hepes pH 7.5, 150 mM NaCl, 3 Roche EDTA-free protease inhibitor cocktail tablets and 1 mM PMSF. The suspension was then homogenised for 90 s at 9,500 rpm. The resulting membranes were then stored at −80° C.
Human CGRP receptors expressed (consisting of CRLR and RAMP1) in insect Sf21 cell membrane homogenates were re-suspended in the binding buffer (10 mM HEPES, pH 7.4, 5 mM MgCl2, 0.2% BSA) to a final assay concentration of 0.6 μg protein per well. Saturation isotherms were determined by the addition of various concentrations of ^3H-telcagepant (Ho et al, The Lancet, 2008, 372, 2115) (in a total reaction volume of 250 μL) for 60 min at rt. At the end of the incubation, membranes were filtered onto a unifilter, a 96-well white microplate with bonded GF/B filter pre-incubated with 0.5% PEI, with a Tomtec cell harvester and washed 5 times with distilled water. Non-specific binding (NSB) was measured in the presence of 10 nM MK-3207 hydrochloride (CAS No. 957116-20-0). Radioactivity on the filter was counted (1 min) on a microbeta counter after addition of 50 μL of scintillation fluid. For inhibition experiments, membranes were incubated with 0.5 nM ^3H-telcagepant and 10 concentrations of the inhibitory compound (0.001-10 μM). IC50 values were derived from the inhibition curve and the affinity constant (Ki) values were calculated using the Cheng-Prussoff equation (Cheng et al, Biochem. Pharmacol. 1973, 22, 3099-3108).

[2] = biological target: CGRP receptor ectodomain complex (Homo sapiens (Human), UniProt O60894+Q16602); assay: Receptor kinetic profiling by surface plasmon resonance (Biacore T200); conditions: SPR; for receptor dissociation (off-rate) compared with olcegepant or MK-3207: in words; for CGRP t1/2: dissociation half-life, 25° C.
Protocol: Kinetic analyses were run on a Biacore T200 instrument (GE Healthcare Bio-Sciences AB, Uppsala, Sweden) at 25° C. using 0.05 mM EDTA, PBS (10 mM phosphate buffer, 2.7 mM KCl, 137 mM NaCl) pH 7.4, 0.005% v/v Surfactant P20, 5% DMSO as the running buffer. […] The chip was loaded with Ni^2+ and carboxyl groups of the dextran matrix were activated by EDC/NHS. The receptor ectodomain complex (100 nM in running buffer) was then injected and immobilised via the His-tag and amino groups. Two fold dilution series of each compound (five concentrations, in the range 25-40 nM) were injected. Blank-subtracted data were fitted to a 1:1 interaction model to obtain kinetic parameters which are expressed in Table 4 as dissociation half-life (t1/2=(ln 2/off-rate (kd)/60).

CGRP receptor = CGRP receptor (Homo sapiens (Human), UniProt O60894+Q16602); assay: cAMP functional assay (HTRF) in SK-N-MC cells; format: cell-based; conditions: read-out: pkb average (converted)
Protocol: cAMP production following receptor activation was determined using the Homogeneous Time-Resolved Fluorescence (HTRF) cAMP dynamic-2 assay (Cisbio, France). The human neuroblastoma cell line SK-N-MC endogenously expressing the human CGRP receptor was seeded at a density of 12,500 cells/well in solid walled 96 well half area plates (Costar, Catalog Number 3688, Corning Life Sciences, Germany). After 16 h incubation at 37° C. media was removed and cells were incubated at 37° C. for 30 min in serum free media containing 500 μM IBMX (Tocris, Abingdon, UK, Catalog Number 2845) and increasing concentrations of test antagonist. Following this cells were challenged with an EC80 concentration of human CGRP (0.3 nM) for a further 30 min at 37° C. and then cAMP production was determined as manufacturer's instructions before plates were read on a PheraStar fluorescence plate reader (BMG LabTech, Germany). IC50 values were derived from the inhibition curve. The pIC50 values (where pIC50=−log10 IC50) were converted to a functional pKb value using a modified Cheng-Prussoff equation where Kd=agonist EC50 and L hot=agonist challenge concentration. The pKb values of certain compounds of the invention are detailed in Table 3.

[3] = Thermodynamic solubility profiling; format: physicochemical; conditions: aqueous buffer, thermodynamic from solid
Protocol: A 50 mM DMSO stock solution of test compound was prepared, and from this, a working solution of 1 mM was prepared by dilution with DMSO. The UV absorbance of working solution was scanned from 220 nm to 1000 nm to identify the wavelength maxima of test compound. The 1 mM working solution was then serially diluted in DMSO to different concentrations to determine linearity/calibration curve. […] The resulting solution was then kept on a RotoSpin shaker at 50 rpm for 24 h at rt before the solution was filtered using 0.45 micron PVDF injector filters in order to remove the insoluble fraction of the compound. Subsequently, 150 uL of the filtrate is taken for quantification using a UV spectrophotometer, acquiring the optical density of standard solutions and test compound at the same wavelength maxima. From the optical density of test compound the thermodynamic solubility is calculated using the linearity/calibration curve and expressed as micromolar (μM). Solubility profiles of certain compounds of the invention are detailed in Table 7.

[4] = PBS buffer pH 7.4, 24 h at rt, read-out: Thermodynamic solubility pH 7.4
[5] = Sodium Phosphate Buffer pH 6.0, 24 h at rt, read-out: Thermodynamic solubility pH 6

Human CGRP receptors (consisting of CRLR and RAMP1), sequence (Q16602 23-461): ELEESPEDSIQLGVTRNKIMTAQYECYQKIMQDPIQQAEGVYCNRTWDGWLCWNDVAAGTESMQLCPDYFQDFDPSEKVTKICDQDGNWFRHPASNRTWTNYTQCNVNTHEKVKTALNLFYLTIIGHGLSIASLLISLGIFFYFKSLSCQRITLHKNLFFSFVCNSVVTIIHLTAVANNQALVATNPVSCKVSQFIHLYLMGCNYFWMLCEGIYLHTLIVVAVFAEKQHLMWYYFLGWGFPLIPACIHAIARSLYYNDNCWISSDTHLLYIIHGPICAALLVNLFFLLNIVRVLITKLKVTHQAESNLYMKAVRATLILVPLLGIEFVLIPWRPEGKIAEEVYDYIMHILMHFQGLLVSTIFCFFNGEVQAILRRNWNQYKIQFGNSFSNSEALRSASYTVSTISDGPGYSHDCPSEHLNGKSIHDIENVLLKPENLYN
Human CGRP receptors (consisting of CRLR and RAMP1), sequence (O60894 27-148): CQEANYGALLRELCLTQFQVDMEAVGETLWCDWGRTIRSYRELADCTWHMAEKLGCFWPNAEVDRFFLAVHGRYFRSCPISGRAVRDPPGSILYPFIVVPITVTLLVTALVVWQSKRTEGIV
CGRP receptor, sequence (Q16602 23-461): as the sequence (Q16602 23-461) above
CGRP receptor, sequence (O60894 27-148): as the sequence (O60894 27-148) above
CGRP receptor ectodomain complex, sequence (Q16602 23-139): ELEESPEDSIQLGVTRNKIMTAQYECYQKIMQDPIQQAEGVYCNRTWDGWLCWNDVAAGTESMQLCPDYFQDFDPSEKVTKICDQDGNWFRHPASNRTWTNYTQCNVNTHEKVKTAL
CGRP receptor ectodomain complex, sequence (O60894 27-118): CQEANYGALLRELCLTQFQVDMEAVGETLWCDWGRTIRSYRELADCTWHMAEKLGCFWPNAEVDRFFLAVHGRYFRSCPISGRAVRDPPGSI

Compound | pKi average [1] | receptor dissociation (off-rate) compared with olcegepant or MK-3207 [2] | CGRP t1/2 [2] | Kb (CGRP receptor) | solubility thermodynamic at 24 h [3, 4] | solubility thermodynamic at 24 h [3, 5]
Cc1cc(C[C@@H](NC(=O)N2CCC(c3cc4ccccc4[nH]c3=O)CC2)C(=O)N[C@@H](CC2CCN(C(=O)OC(C)(C)C)CC2)C(=O)N2CCN(c3ccncc3)CC2)cc2cn[nH]c12 [Example 2, tert-butyl 4-{(2S)-2-{[(2R)-3-(7-methyl-1H-indazol-5-yl)-2-({[4-(2-oxo-1,2-dihydroquinolin-3-yl)piperidin-1-yl]carbonyl}amino)propanoyl]amino}-3-oxo-3-[4-(pyridin-4-yl)piperazin-1-yl]propyl}piperidine-1-carboxylate] | 10.0 | slow receptor dissociation | 78 min | 200 pM | – | –
Cc1cc(C[C@@H](NC(=O)N2CCC(c3cc4ccccc4[nH]c3=O)CC2)C(=O)N[C@@H](CC2CCNCC2)C(=O)N2CCN(c3ccncc3)CC2)cc2cn[nH]c12 [Example 3, N-[(2R)-3-(7-methyl-1H-indazol-5-yl)-1-oxo-1-({(2S)-1-oxo-3-(piperidin-4-yl)-1-[4-(pyridin-4-yl)piperazin-1-yl]propan-2-yl}amino)propan-2-yl]-4-(2-oxo-1,2-dihydroquinolin-3-yl)piperidine-1-carboxamide] | 10.1 | – | 4 min | 158 pM | 509 µM (≈ 393 µg/mL) | 10 µM (≈ 7.73 µg/mL)
O=C(N[C@@H](CC1CCNCC1)C(=O)N1CCN(c2ccncc2)CC1)[C@@H](Cc1cc(Br)c(O)c(Br)c1)NC(=O)N1CCC(N2Cc3ccccc3NC2=O)CC1 [Example 9, 3,5-dibromo-Nα-{[4-(2-oxo-1,4-dihydroquinazolin-3(2H)-yl)piperidin-1-yl]carbonyl}-N-{(2S)-1-oxo-3-(piperidin-4-yl)-1-[4-(pyridin-4-yl)piperazin-1-yl]propan-2-yl}-D-tyrosinamide] | 10.1 | slow receptor dissociation | 32 min | 6.31 pM | – | –
CCN1CCC(C[C@H](NC(=O)[C@@H](Cc2cc(C)c3[nH]ncc3c2)NC(=O)N2CCC(c3cc4ccccc4[nH]c3=O)CC2)C(=O)N2CCN(c3ccncc3)CC2)CC1 [Example 7, N-[(2R)-1-({(2S)-3-(1-ethylpiperidin-4-yl)-1-oxo-1-[4-(pyridin-4-yl)piperazin-1-yl]propan-2-yl}amino)-3-(7-methyl-1H-indazol-5-yl)-1-oxopropan-2-yl]-4-(2-oxo-1,2-dihydroquinolin-3-yl)piperidine-1-carboxamide] | 10.4 | slow receptor dissociation | 36 min | 25.1 pM | – | –
CCCCC(=O)N1CCC(C[C@H](NC(=O)[C@@H](Cc2cc(C)c3[nH]ncc3c2)NC(=O)N2CCC(c3cc4ccccc4[nH]c3=O)CC2)C(=O)N2CCN(c3ccncc3)CC2)CC1 [Example 6, N-[(2R)-3-(7-methyl-1H-indazol-5-yl)-1-oxo-1-({(2S)-1-oxo-3-(1-pentanoylpiperidin-4-yl)-1-[4-(pyridin-4-yl)piperazin-1-yl]propan-2-yl}amino)propan-2-yl]-4-(2-oxo-1,2-dihydroquinolin-3-yl)piperidine-1-carboxamide] | 10.0 | slow receptor dissociation | 20 min | 100 pM | – | –
CCCN1CCC(C[C@H](NC(=O)[C@@H](Cc2cc(C)c3[nH]ncc3c2)NC(=O)N2CCC(c3cc4ccccc4[nH]c3=O)CC2)C(=O)N2CCN(c3ccncc3)CC2)CC1 [Example 4, N-[(2R)-3-(7-methyl-1H-indazol-5-yl)-1-oxo-1-({(2S)-1-oxo-3-(1-propylpiperidin-4-yl)-1-[4-(pyridin-4-yl)piperazin-1-yl]propan-2-yl}amino)propan-2-yl]-4-(2-oxo-1,2-dihydroquinolin-3-yl)piperidine-1-carboxamide] | 10.4 | slow receptor dissociation | 39 min | 20 pM | – | –
Cc1cc(C[C@@H](NC(=O)N2CCC(n3c(=O)[nH]c4ncccc43)CC2)C(=O)N[C@@H](CC2CCN(C(=O)CC(=O)O)CC2)C(=O)N2CCN(c3ccncc3)CC2)cc2cn[nH]c12 [Example 13, 3-(4-{(2S)-2-{[(2R)-3-(7-methyl-1H-indazol-5-yl)-2-({[4-(2-oxo-2,3-dihydro-1H-imidazo[4,5-b]pyridin-1-yl)piperidin-1-yl]carbonyl}amino)propanoyl]amino}-3-oxo-3-[4-(pyridin-4-yl)piperazin-1-yl]propyl}piperidin-1-yl)-3-oxopropanoic Acid, ammonium Salt] | 10.0 | – | – | 126 pM | – | –
Cc1cc(C[C@@H](NC(=O)N2CCC(n3c(=O)[nH]c4ncccc43)CC2)C(=O)N[C@@H](CC2CCN(CCN(C)C)CC2)C(=O)N2CCN(c3ccncc3)CC2)cc2cn[nH]c12 [Example 12, N-[(2R)-1-({(2S)-3-{1-[2-(dimethylamino)ethyl]piperidin-4-yl}-1-oxo-1-[4-(pyridin-4-yl)piperazin-1-yl]propan-2-yl}amino)-3-(7-methyl-1H-indazol-5-yl)-1-oxopropan-2-yl]-4-(2-oxo-2,3-dihydro-1H-imidazo[4,5-b]pyridin-1-yl)piperidine-1-carboxamide] | – | – | 101 min | 25.1 pM | 1960 µM (≈ 1630 µg/mL) | 1650 µM (≈ 1370 µg/mL)
